Assay results from ChEMBL document CHEMBL1140238, “Synthesis of selective SRPK-1 inhibitors: novel tricyclic quinoxaline derivatives” (Bioorg Med Chem Lett, 2005).

Legend:
[1] = Inhibitory activity against Platelet-derived growth factor receptor kinase
[2] = molecular target: Hepatocyte growth factor receptor (Homo sapiens) (UniProt P08581); experiment: In vitro percent inhibition of Met proto-oncogene tyrosine kinase at 10 uM concentration of compound dissolved in 100% DMSO using 5''-[gamma-33P]-triphosphate
[3] = molecular target: RAF proto-oncogene serine/threonine-protein kinase (Homo sapiens) (UniProt P04049); experiment: In vitro percent inhibition of RAF proto-oncogene serine/threonine-protein kinase at 10 uM concentration of compound dissolved in 100% DMSO using 5''-[gamma-33P]-triphosphate
Sequence of RAF proto-oncogene serine/threonine-protein kinase (Homo sapiens) (P04049 whole entry): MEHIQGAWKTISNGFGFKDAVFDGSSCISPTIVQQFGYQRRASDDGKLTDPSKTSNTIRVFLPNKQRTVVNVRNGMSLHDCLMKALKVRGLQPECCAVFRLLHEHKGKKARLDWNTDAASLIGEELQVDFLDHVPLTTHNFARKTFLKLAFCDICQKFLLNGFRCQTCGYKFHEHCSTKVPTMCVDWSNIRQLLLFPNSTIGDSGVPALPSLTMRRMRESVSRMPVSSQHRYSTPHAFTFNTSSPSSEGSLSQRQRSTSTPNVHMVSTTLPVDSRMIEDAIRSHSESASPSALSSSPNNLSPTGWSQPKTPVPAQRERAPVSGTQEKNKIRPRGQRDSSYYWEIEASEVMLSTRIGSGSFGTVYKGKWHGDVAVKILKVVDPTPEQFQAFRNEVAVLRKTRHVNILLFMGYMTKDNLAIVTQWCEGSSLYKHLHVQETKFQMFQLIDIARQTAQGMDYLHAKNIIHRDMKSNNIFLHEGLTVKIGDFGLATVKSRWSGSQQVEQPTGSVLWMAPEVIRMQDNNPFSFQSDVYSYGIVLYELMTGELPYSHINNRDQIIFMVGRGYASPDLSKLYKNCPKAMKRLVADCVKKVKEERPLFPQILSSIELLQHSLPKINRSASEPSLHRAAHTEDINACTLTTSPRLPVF

[4] = molecular target: Proto-oncogene tyrosine-protein kinase Src (Homo sapiens) (UniProt P12931); experiment: In vitro percent inhibition of c-Src tyrosine kinase at 10 uM concentration of compound dissolved in 100% DMSO using 5''-[gamma-33P]-triphosphate
[5] = molecular target: Ribosomal protein S6 kinase (P70S6K) (Homo sapiens) (UniProt Q9UBS0+P23443); experiment: In vitro percent inhibition of Ribosomal protein S6 kinase at 10 uM concentration of compound dissolved in 100% DMSO using 5''-[gamma-33P]-triphosphate; type: protein-complex assay
SRPK1 (Homo sapiens) = experiment: In vitro inhibition of SR protein kinase 1 by compound dissolved in 100% DMSO using 5''-[gamma-33P]-triphosphate; n.a. - not active
[6] = molecular target: T1, Tyrosine-protein kinase transforming protein Abl (Abelson murine leukemia virus) (UniProt P00521); experiment: In vitro percent inhibition of v-Abl tyrosine kinase at 10 uM concentration of compound dissolved in 100% DMSO using 5''-[gamma-33P]-triphosphate
T1 sequence (whole entry): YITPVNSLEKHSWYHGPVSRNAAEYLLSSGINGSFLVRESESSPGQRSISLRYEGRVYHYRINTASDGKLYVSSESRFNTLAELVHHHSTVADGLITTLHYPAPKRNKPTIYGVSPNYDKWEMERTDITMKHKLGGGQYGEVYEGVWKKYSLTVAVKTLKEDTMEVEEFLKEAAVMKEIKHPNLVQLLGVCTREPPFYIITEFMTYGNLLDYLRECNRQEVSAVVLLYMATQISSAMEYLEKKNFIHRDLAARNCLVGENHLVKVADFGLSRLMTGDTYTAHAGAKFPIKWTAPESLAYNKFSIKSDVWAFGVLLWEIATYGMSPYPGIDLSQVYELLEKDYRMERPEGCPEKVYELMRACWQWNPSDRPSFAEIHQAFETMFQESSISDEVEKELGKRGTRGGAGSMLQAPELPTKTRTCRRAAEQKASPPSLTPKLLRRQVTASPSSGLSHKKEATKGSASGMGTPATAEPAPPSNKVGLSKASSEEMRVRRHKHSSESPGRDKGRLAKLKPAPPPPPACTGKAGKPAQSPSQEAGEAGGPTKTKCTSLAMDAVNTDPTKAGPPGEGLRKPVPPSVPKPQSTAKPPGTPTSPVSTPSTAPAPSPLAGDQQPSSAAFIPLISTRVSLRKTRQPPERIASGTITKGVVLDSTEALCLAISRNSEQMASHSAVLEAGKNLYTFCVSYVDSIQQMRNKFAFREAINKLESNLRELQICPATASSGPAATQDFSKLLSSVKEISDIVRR

[7] = molecular target: Mast/stem cell growth factor receptor Kit (Homo sapiens) (UniProt P10721); experiment: In vitro percent inhibition of v-kit Hardy-Zuckerman 4 feline sarcoma viral oncogene homolog at 10 uM concentration of compound dissolved in 100% DMSO using 5''-[gamma-33P]-triphosphate
[8] = molecular target: Mitogen-activated protein kinase 3 (Homo sapiens) (UniProt P27361); experiment: In vitro percent inhibition of Mitogen-activated protein kinase 3 at 10 uM concentration of compound dissolved in 100% DMSO using 5''-[gamma-33P]-triphosphate
[9] = molecular target: Platelet-derived growth factor receptor beta (Homo sapiens) (UniProt P09619); experiment: In vitro percent inhibition of Platelet-derived growth factor receptor, beta polypeptide at 10 uM concentration of compound dissolved in 100% DMSO using 5''-[gamma-33P]-triphosphate
Sequence of Platelet-derived growth factor receptor beta (Homo sapiens) (P09619 whole entry): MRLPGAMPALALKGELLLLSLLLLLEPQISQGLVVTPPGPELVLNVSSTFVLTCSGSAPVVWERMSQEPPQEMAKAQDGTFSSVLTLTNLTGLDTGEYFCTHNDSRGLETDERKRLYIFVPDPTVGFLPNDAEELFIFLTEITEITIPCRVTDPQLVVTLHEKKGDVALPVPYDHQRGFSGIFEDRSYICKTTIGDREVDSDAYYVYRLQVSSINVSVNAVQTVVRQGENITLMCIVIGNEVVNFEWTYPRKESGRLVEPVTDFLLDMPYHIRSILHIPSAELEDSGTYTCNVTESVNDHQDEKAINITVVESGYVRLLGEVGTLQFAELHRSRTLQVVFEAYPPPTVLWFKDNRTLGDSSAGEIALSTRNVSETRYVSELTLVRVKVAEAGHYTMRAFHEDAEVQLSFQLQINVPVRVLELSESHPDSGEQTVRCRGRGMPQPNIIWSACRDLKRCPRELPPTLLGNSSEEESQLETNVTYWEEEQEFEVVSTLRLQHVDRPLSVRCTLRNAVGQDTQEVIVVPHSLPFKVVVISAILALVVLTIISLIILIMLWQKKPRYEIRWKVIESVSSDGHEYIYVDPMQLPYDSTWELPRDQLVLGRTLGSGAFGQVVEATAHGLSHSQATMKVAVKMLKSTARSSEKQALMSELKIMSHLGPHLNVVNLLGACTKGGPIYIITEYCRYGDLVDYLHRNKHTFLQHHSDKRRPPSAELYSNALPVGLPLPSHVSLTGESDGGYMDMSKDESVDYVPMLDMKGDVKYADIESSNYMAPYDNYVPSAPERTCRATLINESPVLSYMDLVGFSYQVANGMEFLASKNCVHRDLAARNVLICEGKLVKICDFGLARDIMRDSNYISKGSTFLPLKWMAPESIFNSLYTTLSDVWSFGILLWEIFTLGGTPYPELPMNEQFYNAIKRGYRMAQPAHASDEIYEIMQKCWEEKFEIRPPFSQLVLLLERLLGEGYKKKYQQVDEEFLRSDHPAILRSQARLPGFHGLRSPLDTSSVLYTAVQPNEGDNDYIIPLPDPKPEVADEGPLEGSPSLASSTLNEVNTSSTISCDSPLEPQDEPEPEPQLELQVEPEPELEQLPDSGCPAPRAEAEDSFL

[10] = molecular target: Mitogen-activated protein kinase 8 (Homo sapiens) (UniProt P45983); experiment: In vitro percent inhibition of c-Jun N-terminal kinase 1-alpha 1 at 10 uM concentration of compound dissolved in 100% DMSO using 5''-[gamma-33P]-triphosphate
Sequence of Mitogen-activated protein kinase 8 (Homo sapiens) (P45983 whole entry): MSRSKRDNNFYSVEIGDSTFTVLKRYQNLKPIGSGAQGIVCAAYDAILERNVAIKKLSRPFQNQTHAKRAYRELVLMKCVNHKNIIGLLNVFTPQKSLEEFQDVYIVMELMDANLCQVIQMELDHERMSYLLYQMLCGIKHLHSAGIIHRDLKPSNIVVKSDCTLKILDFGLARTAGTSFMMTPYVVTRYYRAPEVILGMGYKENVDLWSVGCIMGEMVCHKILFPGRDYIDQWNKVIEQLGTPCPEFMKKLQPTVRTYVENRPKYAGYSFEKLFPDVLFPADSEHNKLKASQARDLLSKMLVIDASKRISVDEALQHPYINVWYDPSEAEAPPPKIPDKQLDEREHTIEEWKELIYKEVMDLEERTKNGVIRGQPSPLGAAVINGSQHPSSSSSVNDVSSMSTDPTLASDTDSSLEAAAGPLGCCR

[11] = Partition coefficient (logP); type: physicochemical; conditions: octanol/water
[12] = molecular target: Rho-associated protein kinase 2 (Homo sapiens) (UniProt O75116); experiment: In vitro percent inhibition of Protein kinase ROCK2 at 10 uM concentration of compound dissolved in 100% DMSO using 5''-[gamma-33P]-triphosphate
[13] = molecular target: Casein kinase I isoform alpha (Homo sapiens) (UniProt P48729); experiment: In vitro percent inhibition of Casein kinase 1 alpha at 10 uM concentration of compound dissolved in 100% DMSO using 5''-[gamma-33P]-triphosphate
Sequence of Casein kinase I isoform alpha (Homo sapiens) (P48729 2-337 limits assumed): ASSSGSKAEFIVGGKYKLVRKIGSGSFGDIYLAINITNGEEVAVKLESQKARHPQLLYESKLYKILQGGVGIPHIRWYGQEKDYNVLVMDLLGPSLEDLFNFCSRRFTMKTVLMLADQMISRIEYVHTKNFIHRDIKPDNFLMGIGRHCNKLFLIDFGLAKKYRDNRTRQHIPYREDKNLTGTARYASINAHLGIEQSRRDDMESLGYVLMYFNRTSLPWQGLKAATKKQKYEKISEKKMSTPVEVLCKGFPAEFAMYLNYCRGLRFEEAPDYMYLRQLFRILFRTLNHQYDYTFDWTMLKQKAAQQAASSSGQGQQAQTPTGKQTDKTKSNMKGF

[14] = molecular target: T2, Inhibitor of nuclear factor kappa-B kinase subunit beta (Homo sapiens) (UniProt O14920); experiment: In vitro percent inhibition of I-kappa-B-kinase beta at 10 uM concentration of compound dissolved in 100% DMSO using 5''-[gamma-33P]-triphosphate
T2 sequence (whole entry): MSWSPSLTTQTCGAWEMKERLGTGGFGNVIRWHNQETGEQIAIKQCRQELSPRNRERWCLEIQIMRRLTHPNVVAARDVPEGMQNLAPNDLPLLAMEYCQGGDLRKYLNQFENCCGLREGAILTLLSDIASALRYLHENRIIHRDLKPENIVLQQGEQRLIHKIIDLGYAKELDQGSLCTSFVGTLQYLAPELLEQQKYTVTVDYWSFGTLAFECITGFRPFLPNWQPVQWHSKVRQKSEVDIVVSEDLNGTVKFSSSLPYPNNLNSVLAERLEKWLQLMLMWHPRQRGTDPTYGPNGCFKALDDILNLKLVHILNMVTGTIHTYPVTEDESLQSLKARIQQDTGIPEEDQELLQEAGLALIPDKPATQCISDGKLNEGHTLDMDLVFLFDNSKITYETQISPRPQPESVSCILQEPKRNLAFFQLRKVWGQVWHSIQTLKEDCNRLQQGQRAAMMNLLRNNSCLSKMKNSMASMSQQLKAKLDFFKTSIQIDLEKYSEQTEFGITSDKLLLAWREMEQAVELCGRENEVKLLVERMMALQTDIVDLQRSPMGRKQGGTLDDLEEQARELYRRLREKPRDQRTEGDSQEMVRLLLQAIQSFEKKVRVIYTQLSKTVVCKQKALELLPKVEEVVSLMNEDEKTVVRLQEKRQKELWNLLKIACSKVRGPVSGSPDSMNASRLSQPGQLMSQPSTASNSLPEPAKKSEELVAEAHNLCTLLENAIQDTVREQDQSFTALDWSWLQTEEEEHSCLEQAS

[15] = molecular target: Insulin receptor (Homo sapiens) (UniProt P06213); experiment: In vitro percent inhibition of Insulin receptor at 10 uM concentration of compound dissolved in 100% DMSO using 5''-[gamma-33P]-triphosphate
Sequence of Insulin receptor (Homo sapiens) (P06213 28-758 limits assumed): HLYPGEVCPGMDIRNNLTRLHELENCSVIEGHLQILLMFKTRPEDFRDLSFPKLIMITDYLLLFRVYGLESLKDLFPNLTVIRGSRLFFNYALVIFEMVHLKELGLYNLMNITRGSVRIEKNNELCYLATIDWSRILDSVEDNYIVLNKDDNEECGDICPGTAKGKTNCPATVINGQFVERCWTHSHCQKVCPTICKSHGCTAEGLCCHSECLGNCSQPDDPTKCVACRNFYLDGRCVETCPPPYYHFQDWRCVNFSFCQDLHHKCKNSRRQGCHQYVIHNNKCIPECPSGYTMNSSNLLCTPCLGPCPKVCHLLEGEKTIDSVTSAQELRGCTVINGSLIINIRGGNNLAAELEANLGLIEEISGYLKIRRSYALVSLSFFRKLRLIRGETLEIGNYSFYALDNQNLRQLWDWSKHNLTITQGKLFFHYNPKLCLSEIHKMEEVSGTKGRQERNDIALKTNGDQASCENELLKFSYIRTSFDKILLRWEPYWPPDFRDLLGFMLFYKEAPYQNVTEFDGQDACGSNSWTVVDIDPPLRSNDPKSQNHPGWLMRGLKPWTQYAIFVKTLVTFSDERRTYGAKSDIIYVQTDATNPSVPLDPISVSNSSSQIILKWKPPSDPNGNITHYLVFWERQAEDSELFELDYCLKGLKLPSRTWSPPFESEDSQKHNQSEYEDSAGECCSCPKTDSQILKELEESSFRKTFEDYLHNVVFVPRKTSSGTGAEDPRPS
Sequence of Insulin receptor (Homo sapiens) (P06213 763-1382 limits assumed): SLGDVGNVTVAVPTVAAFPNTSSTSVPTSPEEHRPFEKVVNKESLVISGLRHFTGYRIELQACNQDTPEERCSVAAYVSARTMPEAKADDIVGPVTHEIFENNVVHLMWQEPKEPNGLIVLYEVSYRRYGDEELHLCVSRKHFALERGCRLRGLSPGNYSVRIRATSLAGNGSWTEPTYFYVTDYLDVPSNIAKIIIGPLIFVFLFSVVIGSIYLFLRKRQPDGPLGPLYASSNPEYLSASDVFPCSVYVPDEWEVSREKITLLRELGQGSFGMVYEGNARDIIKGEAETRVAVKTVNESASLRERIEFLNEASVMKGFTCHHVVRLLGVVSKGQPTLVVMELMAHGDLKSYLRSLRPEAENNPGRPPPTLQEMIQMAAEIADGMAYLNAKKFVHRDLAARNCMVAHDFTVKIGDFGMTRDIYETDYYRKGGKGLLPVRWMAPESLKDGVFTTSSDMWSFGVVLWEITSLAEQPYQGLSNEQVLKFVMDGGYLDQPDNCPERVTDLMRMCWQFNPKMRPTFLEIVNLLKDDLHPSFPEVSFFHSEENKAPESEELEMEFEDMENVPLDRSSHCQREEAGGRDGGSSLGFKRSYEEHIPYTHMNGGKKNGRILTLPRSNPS

[16] = In vitro percent inhibition of Cyclin-dependent kinase 2-cyclin A at 10 uM concentration of compound dissolved in 100% DMSO using 5''-[gamma-33P]-triphosphate
[17] = In vitro percent inhibition of Ribosomal S6 kinase 1 at 10 uM concentration of compound dissolved in 100% DMSO using 5''-[gamma-33P]-triphosphate
[18] = molecular target: Epidermal growth factor receptor (Homo sapiens) (UniProt P00533); conditions: 10 uM
Sequence of Epidermal growth factor receptor (Homo sapiens) (P00533 whole entry): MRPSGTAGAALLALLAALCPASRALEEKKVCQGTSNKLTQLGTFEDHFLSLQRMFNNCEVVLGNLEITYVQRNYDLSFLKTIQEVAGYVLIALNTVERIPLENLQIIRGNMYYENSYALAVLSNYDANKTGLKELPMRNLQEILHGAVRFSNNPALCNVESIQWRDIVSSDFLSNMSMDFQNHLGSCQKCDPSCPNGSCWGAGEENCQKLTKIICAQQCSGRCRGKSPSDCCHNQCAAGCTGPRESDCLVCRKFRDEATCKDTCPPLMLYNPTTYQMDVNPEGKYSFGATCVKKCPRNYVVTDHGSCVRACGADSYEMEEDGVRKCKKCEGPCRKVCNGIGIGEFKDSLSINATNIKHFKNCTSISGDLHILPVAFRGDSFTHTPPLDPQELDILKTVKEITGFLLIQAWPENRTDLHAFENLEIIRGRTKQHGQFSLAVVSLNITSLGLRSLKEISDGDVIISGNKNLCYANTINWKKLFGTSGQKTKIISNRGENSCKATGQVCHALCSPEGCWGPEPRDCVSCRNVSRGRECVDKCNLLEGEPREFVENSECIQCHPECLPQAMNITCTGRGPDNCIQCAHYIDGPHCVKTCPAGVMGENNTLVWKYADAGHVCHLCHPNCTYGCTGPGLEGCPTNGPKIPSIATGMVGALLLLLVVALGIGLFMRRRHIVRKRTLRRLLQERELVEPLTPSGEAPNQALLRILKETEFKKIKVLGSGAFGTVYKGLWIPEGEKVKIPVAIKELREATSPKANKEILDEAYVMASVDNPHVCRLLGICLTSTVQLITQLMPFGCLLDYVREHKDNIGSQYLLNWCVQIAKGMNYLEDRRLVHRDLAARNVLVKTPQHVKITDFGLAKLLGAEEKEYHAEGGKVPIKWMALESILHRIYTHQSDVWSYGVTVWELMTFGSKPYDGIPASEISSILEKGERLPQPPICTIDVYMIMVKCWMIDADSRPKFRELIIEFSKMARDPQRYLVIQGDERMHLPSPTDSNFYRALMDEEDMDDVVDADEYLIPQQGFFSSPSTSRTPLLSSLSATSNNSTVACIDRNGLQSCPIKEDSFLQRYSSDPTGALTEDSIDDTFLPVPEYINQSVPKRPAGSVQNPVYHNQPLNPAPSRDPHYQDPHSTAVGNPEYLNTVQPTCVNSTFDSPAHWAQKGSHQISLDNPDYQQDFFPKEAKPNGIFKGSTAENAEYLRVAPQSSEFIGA

[19] = molecular target: Tyrosine-protein kinase Lck (Homo sapiens) (UniProt P06239); experiment: In vitro percent inhibition of p56 Lck tyrosine kinase at 10 uM concentration of compound dissolved in 100% DMSO using 5''-[gamma-33P]-triphosphate

Structure (SMILES) | IC50 [1] | inhibition [2] | inhibition [3] | inhibition [4] | inhibition [5] | IC50 (SRPK1 (Homo sapiens)) | inhibition [6] | inhibition [7] | inhibition [8] | inhibition [9] | inhibition [10] | logP [11] | inhibition [12] | inhibition [13] | inhibition [14] | inhibition [15] | inhibition [16] | inhibition [17] | inhibition [18] | inhibition [19]
c1ccc(-c2cnc3cc4ccccc4cc3n2)cc1 | 900 nM | – | – | – | – | – | – | – | – | – | – | – | – | – | – | – | – | – | – | –
c1csc(-c2nc3cc4c(cc3nc2-c2cccs2)OCCCO4)c1 | – | 27% | -5% | 75% | 2% | Not Active | 10% | 22% | 21% | 24% | 15% | 5 | 32% | -5% | 22% | 34% | -7% | 17% | 26% | 39%
